From article PMC4490784, “Compensatory induction of MYC expression by sustained CDK9 inhibition via a BRD4-dependent mechanism” (eLife, 2015)

Legend:
Assay in all cases: KINOMEscan binding assay
[1] = target: T1, ABL1(T315I)-nonphosphorylated (Homo sapiens, UniProt P00519, T315I); conditions: read-out: % Retention on Solid Support
T1 construct: purchased DiscoveRx KINOMEscan
Summary of the method: (§1)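 Over 400 kinases were screened. i-CDK9 was applied at 1 and 10 µM. Occupancy was read by competition with an active site-directed ligand.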

ACVR2B = target: T2, ACVR2B (Homo sapiens, UniProt Q13705)
T2 construct: purchased DiscoveRx KINOMEscan
Summary of the method: as §1

AKT3 = target: T3, AKT3 (Homo sapiens, UniProt Q9Y243); conditions: read-out: % Retention on Solid Support
T3 construct: purchased DiscoveRx KINOMEscan
Summary of the method: as §1

BIKE = target: T4, BIKE (Homo sapiens, UniProt Q9NSY1); conditions: read-out: % Retention on Solid Support
T4 construct: purchased DiscoveRx KINOMEscan
Summary of the method: as §1

BRAF(V600E) = target: T5, BRAF(V600E) (Homo sapiens, UniProt P15056, V600E); conditions: read-out: % Retention on Solid Support
T5 construct: purchased DiscoveRx KINOMEscan
T5 sequence (P15056 whole entry V600E): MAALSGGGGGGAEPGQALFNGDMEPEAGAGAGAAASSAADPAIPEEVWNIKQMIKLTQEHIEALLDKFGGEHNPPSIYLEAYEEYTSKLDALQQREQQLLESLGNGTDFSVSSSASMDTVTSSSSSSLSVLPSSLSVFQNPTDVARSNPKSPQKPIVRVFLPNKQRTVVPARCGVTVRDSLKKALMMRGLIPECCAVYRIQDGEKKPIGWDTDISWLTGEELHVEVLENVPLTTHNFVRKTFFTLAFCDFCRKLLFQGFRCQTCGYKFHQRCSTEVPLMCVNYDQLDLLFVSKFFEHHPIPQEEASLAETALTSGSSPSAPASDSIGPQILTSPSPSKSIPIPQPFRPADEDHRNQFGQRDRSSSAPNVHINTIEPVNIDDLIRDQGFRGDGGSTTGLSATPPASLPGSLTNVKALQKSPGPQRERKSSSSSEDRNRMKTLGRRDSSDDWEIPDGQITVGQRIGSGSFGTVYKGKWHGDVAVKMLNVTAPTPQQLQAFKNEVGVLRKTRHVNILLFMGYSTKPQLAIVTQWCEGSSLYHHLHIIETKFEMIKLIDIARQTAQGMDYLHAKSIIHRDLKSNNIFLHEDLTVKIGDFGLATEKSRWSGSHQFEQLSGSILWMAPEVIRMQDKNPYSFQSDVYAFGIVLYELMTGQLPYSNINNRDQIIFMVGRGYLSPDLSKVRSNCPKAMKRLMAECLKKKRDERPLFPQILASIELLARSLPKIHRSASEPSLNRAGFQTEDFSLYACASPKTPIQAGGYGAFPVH
Summary of the method: as §1

CAMK1 = target: T6, CAMK1 (Homo sapiens, UniProt Q14012); conditions: read-out: % Retention on Solid Support
T6 construct: purchased DiscoveRx KINOMEscan
T6 sequence (Q14012 whole entry): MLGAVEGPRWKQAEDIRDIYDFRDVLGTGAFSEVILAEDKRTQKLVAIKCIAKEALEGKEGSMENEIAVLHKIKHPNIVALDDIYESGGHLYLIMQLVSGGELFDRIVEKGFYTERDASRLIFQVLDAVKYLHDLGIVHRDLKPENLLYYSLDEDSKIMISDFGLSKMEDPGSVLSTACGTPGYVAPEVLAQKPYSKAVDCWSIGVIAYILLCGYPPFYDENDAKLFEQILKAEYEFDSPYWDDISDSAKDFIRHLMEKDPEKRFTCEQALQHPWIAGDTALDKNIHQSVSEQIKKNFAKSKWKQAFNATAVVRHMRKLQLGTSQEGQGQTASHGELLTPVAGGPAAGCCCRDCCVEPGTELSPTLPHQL
Summary of the method: as §1

CAMK2D = target: T7, CAMK2D (Homo sapiens, UniProt Q13557); conditions: read-out: % Retention on Solid Support
T7 construct: purchased DiscoveRx KINOMEscan
T7 sequence (Q13557 whole entry): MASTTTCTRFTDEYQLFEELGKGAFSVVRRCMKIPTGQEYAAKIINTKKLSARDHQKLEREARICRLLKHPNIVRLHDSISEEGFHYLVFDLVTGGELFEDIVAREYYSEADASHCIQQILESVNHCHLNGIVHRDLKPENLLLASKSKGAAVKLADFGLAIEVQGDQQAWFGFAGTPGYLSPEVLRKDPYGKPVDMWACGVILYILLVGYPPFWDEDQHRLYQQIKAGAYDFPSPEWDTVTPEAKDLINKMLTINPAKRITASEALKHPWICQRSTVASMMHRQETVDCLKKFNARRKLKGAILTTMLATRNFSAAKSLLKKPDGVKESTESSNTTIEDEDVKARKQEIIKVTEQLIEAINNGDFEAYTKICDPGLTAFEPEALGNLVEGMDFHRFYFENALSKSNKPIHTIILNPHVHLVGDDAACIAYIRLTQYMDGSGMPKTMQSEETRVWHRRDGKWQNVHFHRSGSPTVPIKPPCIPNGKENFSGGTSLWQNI
Summary of the method: as §1

CDC2L5 = target: T8, CDC2L5 (Homo sapiens, UniProt Q14004); conditions: 1 µM i-CDK9
T8 construct: purchased DiscoveRx KINOMEscan
Summary of the method: as §1

CDK13 = target: T9, CDK13 (Homo sapiens, UniProt Q14004); conditions: 1 µM i-CDK9
T9 construct: purchased DiscoveRx
Summary of the method: as §1

EGFR(E746-A750del) = target: T10, EGFR(E746-A750del) (Homo sapiens, UniProt P00533, DEL746-750)
T10 construct: purchased DiscoveRx KINOMEscan
Summary of the method: as §1

ERBB2 = target: T11, ERBB2 (Homo sapiens, UniProt P04626); conditions: read-out: % Retention on Solid Support
T11 construct: purchased DiscoveRx KINOMEscan
T11 sequence (P04626 23-1255): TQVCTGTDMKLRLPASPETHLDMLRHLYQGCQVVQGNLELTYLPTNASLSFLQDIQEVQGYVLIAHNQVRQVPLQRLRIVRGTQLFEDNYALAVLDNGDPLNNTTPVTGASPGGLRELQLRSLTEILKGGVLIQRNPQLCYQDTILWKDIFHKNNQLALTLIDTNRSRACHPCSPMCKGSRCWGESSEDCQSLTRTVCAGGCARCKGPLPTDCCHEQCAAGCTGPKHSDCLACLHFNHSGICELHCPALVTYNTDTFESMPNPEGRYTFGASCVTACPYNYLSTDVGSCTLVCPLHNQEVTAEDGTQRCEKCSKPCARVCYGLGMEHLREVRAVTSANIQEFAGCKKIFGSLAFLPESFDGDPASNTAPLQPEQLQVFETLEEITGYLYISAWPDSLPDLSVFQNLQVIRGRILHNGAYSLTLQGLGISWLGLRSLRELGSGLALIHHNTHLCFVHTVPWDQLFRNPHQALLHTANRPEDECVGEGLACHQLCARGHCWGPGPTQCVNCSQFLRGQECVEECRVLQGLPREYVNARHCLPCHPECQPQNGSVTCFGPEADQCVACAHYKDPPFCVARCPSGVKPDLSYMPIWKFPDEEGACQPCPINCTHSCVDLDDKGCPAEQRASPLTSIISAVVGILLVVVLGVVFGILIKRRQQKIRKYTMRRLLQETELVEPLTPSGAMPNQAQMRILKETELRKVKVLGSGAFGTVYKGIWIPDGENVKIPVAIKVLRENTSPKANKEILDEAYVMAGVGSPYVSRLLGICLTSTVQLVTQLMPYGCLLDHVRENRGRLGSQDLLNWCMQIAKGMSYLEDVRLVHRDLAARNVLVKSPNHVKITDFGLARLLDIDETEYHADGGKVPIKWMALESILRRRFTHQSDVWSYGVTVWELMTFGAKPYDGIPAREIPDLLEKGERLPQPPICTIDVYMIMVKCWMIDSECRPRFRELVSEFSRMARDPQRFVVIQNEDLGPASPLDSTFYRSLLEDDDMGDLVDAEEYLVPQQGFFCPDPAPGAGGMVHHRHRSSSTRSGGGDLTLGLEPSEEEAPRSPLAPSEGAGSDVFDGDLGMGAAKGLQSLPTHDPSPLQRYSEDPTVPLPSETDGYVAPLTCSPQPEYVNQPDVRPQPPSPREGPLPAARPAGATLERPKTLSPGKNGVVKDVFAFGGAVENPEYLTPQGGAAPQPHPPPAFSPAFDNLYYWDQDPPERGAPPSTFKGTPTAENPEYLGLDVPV
Summary of the method: as §1

FLT3(K663Q) = target: T12, FLT3(K663Q) (Homo sapiens, UniProt P36888, K663Q); conditions: read-out: % Retention on Solid Support
T12 construct: purchased DiscoveRx KINOMEscan
Summary of the method: as §1

NEK1 = target: T13, NEK1 (Homo sapiens, UniProt Q96PY6); conditions: read-out: % Retention on Solid Support
T13 construct: purchased DiscoveRx KINOMEscan
Summary of the method: as §1

NEK9 = target: T14, NEK9 (Homo sapiens, UniProt Q8TD19); conditions: read-out: % Retention on Solid Support
T14 construct: purchased DiscoveRx KINOMEscan
Summary of the method: as §1

PIK3C2G = target: T15, PIK3C2G (Homo sapiens, UniProt O75747); conditions: read-out: % Retention on Solid Support
T15 construct: purchased DiscoveRx KINOMEscan
Summary of the method: as §1

PKMYT1 = target: T16, PKMYT1 (Homo sapiens, UniProt Q99640)
T16 construct: purchased DiscoveRx KINOMEscan
Summary of the method: as §1

PLK1 = target: T17, PLK1 (Homo sapiens, UniProt P53350); conditions: read-out: % Retention on Solid Support
T17 construct: purchased DiscoveRx KINOMEscan
Summary of the method: as §1

PLK2 = target: T18, PLK2 (Homo sapiens, UniProt Q9NYY3)
T18 construct: purchased DiscoveRx KINOMEscan
T18 sequence (Q9NYY3 whole entry): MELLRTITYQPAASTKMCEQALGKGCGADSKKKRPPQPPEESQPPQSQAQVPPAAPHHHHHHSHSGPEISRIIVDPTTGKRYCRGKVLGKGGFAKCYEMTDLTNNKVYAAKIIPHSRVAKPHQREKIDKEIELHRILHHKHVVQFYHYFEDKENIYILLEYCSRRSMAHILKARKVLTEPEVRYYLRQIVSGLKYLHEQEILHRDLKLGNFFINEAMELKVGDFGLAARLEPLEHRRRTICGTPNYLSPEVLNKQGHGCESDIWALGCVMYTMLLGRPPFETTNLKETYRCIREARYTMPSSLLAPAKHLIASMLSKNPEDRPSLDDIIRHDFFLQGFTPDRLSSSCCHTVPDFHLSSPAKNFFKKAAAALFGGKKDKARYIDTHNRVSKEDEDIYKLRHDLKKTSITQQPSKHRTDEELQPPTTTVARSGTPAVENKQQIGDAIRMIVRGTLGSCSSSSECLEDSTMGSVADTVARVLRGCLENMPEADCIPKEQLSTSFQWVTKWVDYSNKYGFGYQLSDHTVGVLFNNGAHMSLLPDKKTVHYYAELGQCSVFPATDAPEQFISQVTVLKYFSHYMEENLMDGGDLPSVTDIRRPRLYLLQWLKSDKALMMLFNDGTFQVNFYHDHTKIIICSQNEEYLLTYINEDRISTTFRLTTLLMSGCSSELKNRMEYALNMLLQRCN
Summary of the method: as §1

RIPK1 = target: T19, RIPK1 (Homo sapiens, UniProt Q13546); conditions: read-out: % Retention on Solid Support
T19 construct: purchased DiscoveRx KINOMEscan
Summary of the method: as §1

SRMS = target: T20, SRMS (Homo sapiens, UniProt Q9H3Y6); conditions: read-out: % Retention on Solid Support
T20 construct: purchased DiscoveRx KINOMEscan
Summary of the method: as §1

STK36 = target: T21, STK36 (Homo sapiens, UniProt Q9NRP7); conditions: read-out: % Retention on Solid Support
T21 construct: purchased DiscoveRx KINOMEscan
T21 sequence (Q9NRP7 whole entry): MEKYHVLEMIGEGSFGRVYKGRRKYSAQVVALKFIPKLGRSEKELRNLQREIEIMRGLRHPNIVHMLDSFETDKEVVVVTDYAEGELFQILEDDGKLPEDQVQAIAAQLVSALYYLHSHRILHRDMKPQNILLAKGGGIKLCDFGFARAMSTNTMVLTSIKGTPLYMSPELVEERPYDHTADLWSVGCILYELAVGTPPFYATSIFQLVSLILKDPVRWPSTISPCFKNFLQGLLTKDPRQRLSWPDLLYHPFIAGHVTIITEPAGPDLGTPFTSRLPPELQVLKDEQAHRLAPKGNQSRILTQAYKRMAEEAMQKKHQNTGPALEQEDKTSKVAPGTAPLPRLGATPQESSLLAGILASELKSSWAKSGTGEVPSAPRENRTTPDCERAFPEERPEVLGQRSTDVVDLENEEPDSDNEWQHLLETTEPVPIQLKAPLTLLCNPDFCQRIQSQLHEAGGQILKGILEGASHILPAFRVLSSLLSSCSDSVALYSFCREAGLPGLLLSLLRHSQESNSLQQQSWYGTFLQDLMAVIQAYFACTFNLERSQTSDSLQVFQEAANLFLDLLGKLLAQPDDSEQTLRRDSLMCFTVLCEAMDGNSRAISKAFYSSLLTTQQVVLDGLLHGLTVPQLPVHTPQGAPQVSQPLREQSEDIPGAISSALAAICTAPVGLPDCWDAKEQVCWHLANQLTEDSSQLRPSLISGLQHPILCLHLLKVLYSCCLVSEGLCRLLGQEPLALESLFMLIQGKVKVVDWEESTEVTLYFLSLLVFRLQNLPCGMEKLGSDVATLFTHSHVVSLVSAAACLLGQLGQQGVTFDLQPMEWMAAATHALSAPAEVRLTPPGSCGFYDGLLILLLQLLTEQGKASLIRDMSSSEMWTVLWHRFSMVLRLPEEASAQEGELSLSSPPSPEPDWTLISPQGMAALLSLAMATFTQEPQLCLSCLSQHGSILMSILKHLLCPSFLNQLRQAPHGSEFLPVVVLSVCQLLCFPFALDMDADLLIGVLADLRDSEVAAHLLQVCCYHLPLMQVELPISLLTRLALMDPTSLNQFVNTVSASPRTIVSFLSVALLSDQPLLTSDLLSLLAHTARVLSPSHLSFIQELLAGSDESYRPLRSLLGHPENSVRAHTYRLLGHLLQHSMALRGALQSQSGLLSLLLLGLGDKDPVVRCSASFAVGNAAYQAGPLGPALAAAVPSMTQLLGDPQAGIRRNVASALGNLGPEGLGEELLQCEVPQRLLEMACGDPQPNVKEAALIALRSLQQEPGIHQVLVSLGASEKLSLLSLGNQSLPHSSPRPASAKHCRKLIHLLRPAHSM
Summary of the method: as §1

TNK2 = target: T22, TNK2 (Homo sapiens, UniProt Q07912); conditions: read-out: % Retention on Solid Support
T22 construct: purchased DiscoveRx KINOMEscan
Summary of the method: as §1

ZAP70 = target: T23, ZAP70 (Homo sapiens, UniProt P43403); conditions: read-out: % Retention on Solid Support
T23 construct: purchased DiscoveRx KINOMEscan
T23 sequence (P43403 1-619): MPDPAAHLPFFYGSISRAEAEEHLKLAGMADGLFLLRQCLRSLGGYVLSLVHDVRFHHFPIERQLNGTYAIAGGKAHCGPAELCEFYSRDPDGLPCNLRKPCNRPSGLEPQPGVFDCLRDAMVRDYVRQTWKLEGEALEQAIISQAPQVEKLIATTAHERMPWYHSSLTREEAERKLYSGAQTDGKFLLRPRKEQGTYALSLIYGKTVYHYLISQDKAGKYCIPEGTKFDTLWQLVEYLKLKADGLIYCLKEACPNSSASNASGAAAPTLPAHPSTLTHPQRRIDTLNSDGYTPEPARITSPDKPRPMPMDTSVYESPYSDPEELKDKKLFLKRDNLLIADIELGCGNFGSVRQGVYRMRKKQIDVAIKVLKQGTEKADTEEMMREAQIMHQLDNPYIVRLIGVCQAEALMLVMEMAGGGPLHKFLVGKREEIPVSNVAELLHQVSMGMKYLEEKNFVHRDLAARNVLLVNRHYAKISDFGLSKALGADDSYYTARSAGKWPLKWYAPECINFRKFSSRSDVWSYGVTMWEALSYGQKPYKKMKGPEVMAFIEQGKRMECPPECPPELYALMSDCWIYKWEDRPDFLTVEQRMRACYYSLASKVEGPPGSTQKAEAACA
Summary of the method: as §1

N[C@H]1CC[C@H](Nc2cc(-c3cccc(NCc4cccc(F)c4)n3)c(Cl)cn2)CC1 [i-CDK9, N2′-(trans-4-aminocyclohexyl)-5′-chloro-N6-(3-fluorobenzyl)-2,4′-bipyridine-2′,6-diamine]
remaining binding at 1 µM ([1]; 1 µM i-CDK9): 100%
remaining binding at 10 µM ([1]; 10 µM i-CDK9): 83%
% Retention on Solid Support (ACVR2B; 1 µM i-CDK9): 100%
% Retention on Solid Support (ACVR2B; 10 µM i-CDK9): 85%
remaining binding at 1 µM (AKT3; 1 µM i-CDK9): 72%
remaining binding at 10 µM (AKT3; 10 µM i-CDK9): 87%
remaining binding at 1 µM (BIKE; 1 µM i-CDK9): 100%
remaining binding at 10 µM (BIKE; 10 µM i-CDK9): 63%
remaining binding at 1 µM (BRAF(V600E); 1 µM i-CDK9): 100%
remaining binding at 10 µM (BRAF(V600E); 10 µM i-CDK9): 88%
remaining binding at 1 µM (CAMK1; 1 µM i-CDK9): 96%
remaining binding at 10 µM (CAMK1; 10 µM i-CDK9): 100%
remaining binding at 1 µM (CAMK2D; 1 µM i-CDK9): 100%
remaining binding at 10 µM (CAMK2D; 10 µM i-CDK9): 100%
% Retention on Solid Support (CDC2L5): 100%
% binding to immobilized ligand (CDK13): 100%
% Retention on Solid Support (EGFR(E746-A750del); 1 µM i-CDK9): 0%
% Retention on Solid Support (EGFR(E746-A750del); 10 µM i-CDK9): 78%
remaining binding at 1 µM (ERBB2; 1 µM i-CDK9): 88%
remaining binding at 10 µM (ERBB2; 10 µM i-CDK9): 100%
remaining binding at 1 µM (FLT3(K663Q); 1 µM i-CDK9): 100%
remaining binding at 10 µM (FLT3(K663Q); 10 µM i-CDK9): 74%
remaining binding at 1 µM (NEK1; 1 µM i-CDK9): 70%
remaining binding at 10 µM (NEK1; 10 µM i-CDK9): 100%
remaining binding at 1 µM (NEK9; 1 µM i-CDK9): 100%
remaining binding at 10 µM (NEK9; 10 µM i-CDK9): 100%
remaining binding at 1 µM (PIK3C2G; 1 µM i-CDK9): 100%
remaining binding at 10 µM (PIK3C2G; 10 µM i-CDK9): 99%
% Retention on Solid Support (PKMYT1; 1 µM i-CDK9): 100%
% Retention on Solid Support (PKMYT1; 10 µM i-CDK9): 93%
remaining binding at 1 µM (PLK1; 1 µM i-CDK9): 100%
remaining binding at 10 µM (PLK1; 10 µM i-CDK9): 92%
% Retention on Solid Support (PLK2; 1 µM i-CDK9): 100%
% Retention on Solid Support (PLK2; 10 µM i-CDK9): 100%
remaining binding at 1 µM (RIPK1; 1 µM i-CDK9): 100%
remaining binding at 10 µM (RIPK1; 10 µM i-CDK9): 100%
remaining binding at 1 µM (SRMS; 1 µM i-CDK9): 99%
remaining binding at 10 µM (SRMS; 10 µM i-CDK9): 80%
remaining binding at 1 µM (STK36; 1 µM i-CDK9): 92%
remaining binding at 10 µM (STK36; 10 µM i-CDK9): 68%
remaining binding at 1 µM (TNK2; 1 µM i-CDK9): 88%
remaining binding at 10 µM (TNK2; 10 µM i-CDK9): 99%
remaining binding at 1 µM (ZAP70; 1 µM i-CDK9): 1.6%
remaining binding at 10 µM (ZAP70; 10 µM i-CDK9): 96%
